“Also recorded” adds a separate entry of the source.
Tests used:
[1] = tested on: diethylnitrosamine-induced hepatocarcinogenic rats; assay: ALT and AST in plasma of DEN-induced HCC rats; assay type: in vivo, albino Wistar rats; conditions: 15 days, mean ± SD, n = 6
Procedure: (§1) All animals were randomly divided into five groups of six animals each. Drugs were suspended in 0.25% CMC, subjected to 28 days’ treatment orally and divided as follows: Group I: 0.25% CMC (2 ml/kg), Group II: DEN (8 mg/kg, intraperitoneally), Group III: DEN+5-fluorouracil (5-FU, 10 mg/kg, intraperitoneally), Group IV: DEN+M1 (50 mg/kg, orally) and Group V: DEN+M1 (100 mg/kg, orally). The procedure to induce HCC was adopted from a paper by Song et al. where it is shown that DEN produces HCC at 8 mg/kg intraperitoneal injection for 28 days to albino Wistar rats. After initial 1 week of adaptive inhabitation, all rats of group II–V were administered with DEN (8 mg/kg, intraperitoneally) for 28 days. After 28 days, 5-FU and M1 were given for 15 days as mentioned above for group III–V. At the end of the experimental period, animals were sacrificed by cervical decapitation and livers were dissected out immediately, rinsed in ice cold saline and stored at -20°C for further studies. The serum was collected, processed and stored for further analysis.
(§2) Liver function biomarkers like aspartate aminotransferase (AST), alanine aminotransferase (ALT) were also measured in serum using commercially available kit from Ebra Diagonesis Pvt Ltd, Germany. The oxidative parameters like superoxide dismutase (SOD), thiobarbituric acid reactive substances (TBARS), protein carbonyl (PC), SOD [14], tissue catalase (CAT) and glutathione (GSH) levels were estimated in liver tissue in the similar experiment. The total protein content of each sample was measured using the Bradford reagent and bovine serum albumin was used as a standard. Conjugated bilirubin and biliverdin in liver were measured as per the following procedure stated earlier in the literature with slight modifications.

[2] = tested on: diethylnitrosamine-induced hepatocarcinogenic rats; assay: Bilirubin and biliverdin in liver of DEN-induced HCC rats; assay type: in vivo, albino Wistar rats; conditions: for Bilirubin / Biliverdin: 15 days, mean ± SD, n = 6
Procedure: as §1, §2

[3] = tested on: diethylnitrosamine-induced hepatocarcinogenic rats; assay: Histopathological studies of liver (hematoxylin and eosin); assay type: in vivo, albino Wistar rats; conditions: DEN+M1 50 and 100 mg/kg orally; 40X
Procedure: as §1
Histopathological studies were also performed to find out the morphological changes of liver cells after M1 administration. Liver tissues from each group were assessed for their morphological changes using hematoxylin and eosin staining. The tissues were preserved in 10% formalin overnight. […]

[4] = Determination of M1 in rat plasma by HPLC (pharmacokinetics); assay type: in vivo, albino Wistar rats
Procedure: In a separate experiment, M1 was administered orally at 50 mg/kg bodyweight to albino Wistar rats (n = 3) and blood was collected from retro orbital plexus at 0.083, 0.25, 0.5, 1, 2, 4, 8, 12, 16, 24 and 36 h. After collection, blood was centrifuged at 10,000 rpm for 10 min, serum was separated and kept at -20°C for further HPLC determination.
A 1 mg/ml stock solution of M1 was prepared in methanol. 2, 5, 10, 25, 50, 100, 200, 250 and 500 ng/ml working solutions were prepared from the stock solution in methanol. A 100 μl of blank plasma and 100 μl working solutions were taken in separate tubes and vortexed for 30 min. After that, the tubes were centrifuged at 13,000 rpm for 5 min and supernatant was taken into another tube and dried at 40°C overnight. Later, the tubes were reconstituted with 50 μl of methanol, vortexed for 10 min and 20 μl was injected for HPLC analysis. The final concentration of working solutions were 1, 2.5, 5, 12.5, 25, 50, 100, 125 and 250 ng/ml, respectively. Quality control (QC) samples were also prepared at concentrations of 3.0, 25.0 and 200.0 ng/ml, representing low, medium and high QC samples (LQC, MQC and HQC), respectively. Triplicate calibrants and QC samples were prepared at each concentration.
For test samples, 100 μl of test plasma and 100 μl methanol were taken in a test tube and vortexed for 30 min. The other procedure was similar to previously described method.
For the determination of M1 in plasma samples, chromatographic separations were performed in a Waters 2489 HPLC (MA, USA) equipped with Spherowsorb C18, 5μ, 4.6 × 250 mm column. The flow rate was at 1.0 ml/min and the mobile phases consisted of solvent A (formic acid containing water, pH 3.4) and solvent B (methanol). The elution condition was methanol:formic acid (70:30) and the total run time was 8 min. The HPLC was run through Empower software version 2 and absorbance was measured at 230 nm wave length. The detector used for estimation was Waters 2489 UV-Vis detector. The final data was calculated using Winnonlin version 1.5.3 software.

[5] = tested on: Huh-7 cells; conditions: in vitro, MTT assay; M1 isolated from MP seeds; cited from earlier work
[6] = albino Wistar, rat, single oral administration of 50 mg/kg in rats, n = 3, plasma

## COc1cc2c(cc1OC)CC(C(=O)O)NC2 (stereo not drawn) [M1, 6,7-dimethoxy-1,2,3,4-tetrahydro-isoquinoline-3-carboxylic acid]
[1]; DEN+M1 50 mg/kg orally
  ALT: 88.4 ± 3.18 U/L
  AST: 47.73 ± 1.76 U/L
[1]; DEN+M1 100 mg/kg orally
  ALT: 58.04 ± 2.84 U/L
  AST: 40.95 ± 1.35 U/L
[2]; DEN+M1 50 mg/kg orally
  Bilirubin: 50.59 ± 1.39 ng/μg of protein
  Biliverdin: 21.19 ± 2.42 ng/μg of protein
[2]; DEN+M1 100 mg/kg orally
  Bilirubin: 40.64 ± 3.47 ng/μg of protein
  Biliverdin: 16.95 ± 1.96 ng/μg of protein
[2]; M1-treated rats, text value (toxic control ∼28 ng)
  biliverdin concentration: ~16 ng
[3]
  liver histopathology: normal tissue architecture was seen; also recorded: less ruptured and denatured cells (RC and DC) than toxic control
[4]; albino Wistar, rat, plasma, po, 50 mg/kg, single oral administration of 50 mg/kg in rats, n = 3, plasma, after 36 h
  AUC(0-t): 2070 ng·h/mL
[4]; [6]
  Cmax: 178 ± 3.27 ng/mL
  Tmax: 4 h
  half-life: 6.05 h
[4]; albino Wistar, rat, single oral administration of 50 mg/kg in rats, n = 3, plasma, read-out: MRT (mean retention time)
  MRT: 10.5 h
[4]; oral 50 mg/kg, rats, inferred from Cmax
  oral bioavailability (in words): good oral bioavailability
[4]; single oral administration of 50 mg/kg in rats, n = 3, plasma, after 36 h, 50 mg/kg
  AUC0-T: 2056.05 ± 26.22 ng·h/mL
[5]
  antiproliferative action on Huh-7 cells: good antiproliferative action

— publication PMC5583658, “6,7-dimethoxy-1,2,3,4-tetrahydro-isoquinoline-3-carboxylic acid attenuates heptatocellular carcinoma in rats with NMR-based metabolic perturbations” (Future Science OA, 2017)
